# Literature values as cited in patent US8940506B2, “High-sensitive fluorescent energy transfer assay using fluoresent amino acids and fluorescent proteins” (The Regents of the University of California, priority 2008, dated 2015).
# System: cancer cells
# Conditions: by disrupting the interaction of ubiquitin E3 ligase MDM2 and its substrate p53
smiles,measurement,value
COc1ccc(C2=N[C@@H](c3ccc(Cl)cc3)[C@@H](c3ccc(Cl)cc3)N2C(=O)N2CCNC(=O)C2)c(OC(C)C)c1 [Nutlin-3],apoptosis and growth inhibition of cancer cells,induce apoptosis and growth inhibition of cancer cells
